Patent publication US8247377B2, “Non-steroidal glucocorticoid inhibitors and their use in treating inflammation, allergy and auto-immune conditions” (Glaxo Group Limited, priority 2006, dated 2012)

How the values were obtained:
glucocorticoid receptor = target: T1, glucocorticoid receptor (Homo sapiens, UniProt P04150); test: Glucocorticoid receptor binding assay (fluorescence polarisation); details: competition with Alexa 555 fluorescently-labelled dexamethasone derivative, full length glucocorticoid receptor; read-out: glucocorticoid binding pIC50 (converted)
T1 construct: a partially purified full length glucocorticoid receptor
T1 sequence (P04150 1-777): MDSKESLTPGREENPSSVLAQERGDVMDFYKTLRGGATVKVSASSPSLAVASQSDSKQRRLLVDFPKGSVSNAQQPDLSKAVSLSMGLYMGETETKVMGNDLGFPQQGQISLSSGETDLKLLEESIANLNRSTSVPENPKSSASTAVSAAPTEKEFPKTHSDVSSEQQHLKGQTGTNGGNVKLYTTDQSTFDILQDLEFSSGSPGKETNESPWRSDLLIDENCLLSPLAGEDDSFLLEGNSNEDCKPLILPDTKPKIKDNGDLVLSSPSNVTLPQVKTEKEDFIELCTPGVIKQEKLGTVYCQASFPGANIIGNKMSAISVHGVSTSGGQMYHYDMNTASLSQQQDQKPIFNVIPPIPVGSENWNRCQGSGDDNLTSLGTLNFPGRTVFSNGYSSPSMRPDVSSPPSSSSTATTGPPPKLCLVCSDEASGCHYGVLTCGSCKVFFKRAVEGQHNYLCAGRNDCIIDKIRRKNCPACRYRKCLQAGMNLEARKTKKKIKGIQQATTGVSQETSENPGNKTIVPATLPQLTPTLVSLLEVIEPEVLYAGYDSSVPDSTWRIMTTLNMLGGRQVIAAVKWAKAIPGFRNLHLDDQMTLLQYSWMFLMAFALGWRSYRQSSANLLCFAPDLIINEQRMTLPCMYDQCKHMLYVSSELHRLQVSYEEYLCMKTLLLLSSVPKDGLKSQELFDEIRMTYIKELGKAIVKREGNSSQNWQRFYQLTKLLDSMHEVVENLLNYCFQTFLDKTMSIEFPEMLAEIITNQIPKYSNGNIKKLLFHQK
Method: Compounds were solvated and diluted in DMSO, and transferred directly into assay plates. Fluorescent dexamethasone and a partially purified full length glucocorticoid receptor were added to the plates, together with buffer components to stabilise the GR protein and incubated at room temperature for 2 hrs in the dark. Binding of each compound was assessed by analysing the displacement of fluorescent ligand by measuring the decrease in fluorescence polarisation signal from the mixture. Dose response curves were constructed from which pIC50 values were estimated.

NFκB = NFκB agonist assay in A549 SPAP cells; type: cell-based; details: Homo sapiens; A549 SPAP cells, TNFα 3.2 ng/ml; read-out: pIC50 for the NFkB assay (converted)
Description: Human lung carcinoma A549 cell line (ECACC No. 86012804) has been stably transfected in house with a plasmid containing an ELAM promoter sequence that has a NFκB response element within it. Stimulation of the cell line with TNFα results in intracellular signal transduction and ultimately translocation of NFκB into the nucleus. This activates the inserted DNA sequence resulting in transcription of the integrated SPAP gene, which is quantified using a colorimetric assay. […] The stably transfected cell line was grown as a monolayer in DMEM supplemented with FCS-HI (10%), Non-essential amino acids (1%), L-Glutamine (2 mM), Pen/Strep (1%) and Geneticin (50 mg/ml).
A 70% confluent T225 flask of A549 SPAP cells was harvested by centrifugation for 5 min at 200 g, resuspended in assay buffer (DMEM supplemented with 10% FCS 2×HI, 2 mM L-Glutamine, 1% Pen/Strep and Non essential amino acids) and diluted to 0.16×10^6/ml. 60 μl of cell solution was dispensed to each well of clear Nunc 384-well plates, containing compound at the required concentration. Plates were incubated for 1 h at 37° C., 95% humidity, 5% CO2 before 10 μl of TNFα was added at final concentration of 3.2 ng/ml and then returned to the cell incubator for 15 h. Plates were equilibrated to room temperature for 1 h prior to the addition of 25 μl of pNPP buffer (1M Diethanolamine pH 9.8, 0.5 mM MgCl2, 0.28M NaCl, 2 mg/ml pNPP) to each well of assay plates. The plates were covered to protect the reagents from light, and then incubated at room temperature for approximately 1 hour before reading them on an Ascent using a 405 nm single filter. Dose response curves were constructed from which pIC50 values were estimated.

progesterone receptor = target: T2, progesterone receptor (Homo sapiens, UniProt P06401); test: Assay for progesterone receptor activity (CV-1 cells, PRb-BacMam/MMTV-BacMam); type: cell-based; details: CV-1 cells transduced with PRb-BacMam and MMTV-BacMam; read-out: pEC50 progesterone receptor activity (converted)
T2 construct: expressed in transfected cells; host or cells: CV-1 cells transduced with PRb-BacMam and MMTV-BacMam
T2 sequence (P06401 1-933): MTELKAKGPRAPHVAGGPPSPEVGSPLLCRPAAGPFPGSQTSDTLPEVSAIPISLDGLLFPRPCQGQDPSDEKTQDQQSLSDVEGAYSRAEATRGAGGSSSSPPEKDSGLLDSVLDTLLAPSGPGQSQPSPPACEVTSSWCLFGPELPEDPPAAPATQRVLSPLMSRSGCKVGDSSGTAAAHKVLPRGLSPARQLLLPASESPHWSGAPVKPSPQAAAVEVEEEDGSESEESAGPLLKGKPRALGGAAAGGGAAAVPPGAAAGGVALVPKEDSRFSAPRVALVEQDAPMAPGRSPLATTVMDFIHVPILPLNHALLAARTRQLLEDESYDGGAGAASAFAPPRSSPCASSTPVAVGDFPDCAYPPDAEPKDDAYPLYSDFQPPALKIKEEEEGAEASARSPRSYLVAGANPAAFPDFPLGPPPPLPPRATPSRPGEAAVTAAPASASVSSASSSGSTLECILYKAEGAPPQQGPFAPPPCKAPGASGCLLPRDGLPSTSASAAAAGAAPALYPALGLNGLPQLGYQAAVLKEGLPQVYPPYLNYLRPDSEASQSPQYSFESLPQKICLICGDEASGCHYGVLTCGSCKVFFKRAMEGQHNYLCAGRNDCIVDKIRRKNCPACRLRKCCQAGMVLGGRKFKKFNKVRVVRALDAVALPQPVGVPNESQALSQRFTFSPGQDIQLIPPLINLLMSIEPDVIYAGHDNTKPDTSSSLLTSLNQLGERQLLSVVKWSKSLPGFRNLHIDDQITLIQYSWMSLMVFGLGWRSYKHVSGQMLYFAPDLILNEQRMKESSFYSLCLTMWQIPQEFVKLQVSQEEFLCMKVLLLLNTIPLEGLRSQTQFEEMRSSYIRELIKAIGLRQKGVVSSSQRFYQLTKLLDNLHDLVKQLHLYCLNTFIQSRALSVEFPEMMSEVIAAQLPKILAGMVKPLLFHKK
Method: A T225 flask of CV-1 cells at a density of 80% confluency was washed with PBS, detached from the flask using 0.25% trypsin and counted using a Sysmex KX-21N. Cells were diluted in DMEM containing 10% Hyclone, 2 mM L-Glutamate and 1% Pen/Strep at 140 cells/μl and transduced with 10% PRb-BacMam and 10% MMTV-BacMam. […] of suspension cells were dispensed to each well of white Nunc 384-well plates, containing compounds at the required concentration. After 24 h 10 μl of Steadylite were added to each well of the plates. Plates were incubated in the dark for 10 min before reading them on a Viewlux reader. Dose response curves were constructed from which pEC50 values were estimated.

[1] = Assay for brain penetrance; type: in vivo; details: brain and plasma, rat, single intravenous dose 1 mg/kg, read-out: brain to plasma ratio
Method: Each rat received a single intravenous dose at a level of 1 mg/kg. The dose was formulated in 10% DMSO/50% PEG200/40% sterile water. Terminal blood samples were taken at 5 or 15 minutes after dosing, by cardiac puncture following anaesthesia with isofluorane. The brains were removed at the same time point.
The compounds were extracted from 20 μL plasma by protein precipitation using 120 μL acetonitrile containing an analogue compound as an internal standard. The filtered extracts were collected into a 96 well plate and were diluted with an equal volume of 10% acetonitrile containing 0.1% formic acid in water (v/v). The plate was then mixed on a plate shaker for at least 5 minutes before analysis by LC-MS/MS against a calibration line prepared in control plasma.
Each brain was weighed, then homogenised in 3 ml acetonitrile:water (10:90 v/v). The compounds were extracted from 200 μL of the resulting homogenate by protein precipitation using 600 μL acetonitrile containing an analogue compound as an internal standard. The extracts were centrifuged and 150 μl of each was filtered and transferred to a 96 well plate. The aliquot was diluted with 10% acetonitrile containing 0.1% formic acid in water (v/v). The plate was mixed on a plate shaker for at least 5 minutes before analysis by LC-MS/MS against a calibration line prepared in control brain homogenate.

Row | SMILES | IC50 (glucocorticoid receptor) [µM] | IC50 (NFκB) [µM] | EC50 (progesterone receptor) [µM] | Kp at 5 min [1]
1 | CN(CC(O)(CNC(=O)c1cnn(-c2ccc(F)cc2)c1N)C(F)(F)F)C(=O)c1c(Cl)cccc1Cl (single isomer, unassigned) [Example 1 Enantiomer 1, 5-Amino-N-(2-{[[(2,6-dichlorophenyl)carbonyl](methyl)amino]methyl}-3,3,3-trifluoro-2-hydroxypropyl)-1-(4-fluorophenyl)-1H-pyrazole-4-carboxamide] | ≤ 0.316 | < 1 | > 1 | ≥ 0.1
2 | CCN(CC(O)(CNC(=O)c1cnn(-c2ccc(F)cc2)c1N)C(F)(F)F)C(=O)c1c(F)cccc1F (single isomer, unassigned) [Example 5 Enantiomer 1, 5-Amino-N-(2-{[[(2,6-difluorophenyl)carbonyl](ethyl)amino]methyl}-3,3,3-trifluoro-2-hydroxypropyl)-1-(4-fluorophenyl)-1H-pyrazole-4-carboxamide] | ≤ 0.316 | < 1 | > 1 | ≥ 0.1
